Measurements published in ChEMBL document CHEMBL5634077, “Recent advances in 1,2,3- and 1,2,4-triazole hybrids as antimicrobials and their SAR: A critical review” (2023).
Converted amounts (≈) assume the structure as drawn. One block for each compound: values may come before it.

Assays:
Type in all cases: functional
Staphylococcus aureus [1] = assay: Antibacterial activity against Staphylococcus aureus assessed as reduction in bacterial growth incubated for 24 hrs by broth microdilution method
Klebsiella pneumoniae [2] = assay: Antibacterial activity against Klebsiella pneumoniae assessed as inhibition of bacterial growth
Candida albicans [3] = assay: Antifungal activity against Candida albicans assessed as inhibition of fungal growth
Escherichia coli [4] = assay: Antibacterial activity against Escherichia coli assessed as inhibition of bacterial growth
Staphylococcus aureus [5] = assay: Antibacterial activity against Staphylococcus aureus assessed as inhibition of bacterial growth
Rhizopus = assay: Antifungal activity against Rhizopus assessed as inhibition of fungal growth
Aspergillus flavus [6] = assay: Antifungal activity against Aspergillus flavus assessed as inhibition of fungal growth
Staphylococcus aureus [7] = assay: Antimicrobial activity against Staphylococcus aureus assessed as diameter of inhibition zone incubated for 24 hrs by disc-diffusion method
Klebsiella pneumoniae [8] = assay: Antimicrobial activity against Klebsiella pneumoniae assessed as diameter of inhibition zone incubated for 24 hrs by disc-diffusion method
Escherichia coli [9] = assay: Antimicrobial activity against Escherichia coli assessed as diameter of inhibition zone incubated for 24 hrs by disc-diffusion method
Candida albicans [10] = assay: Antimicrobial activity against Candida albicans assessed as diameter of inhibition zone incubated for 24 hrs by disc-diffusion method
Candida albicans [11] = assay: Antifungal activity against Candida albicans assessed as diameter of inhibition zone at 50 to 100 ug/ml by disc-diffusion method; details: dose 50-100 µg/ml
Aspergillus flavus [12] = assay: Antifungal activity against Aspergillus flavus assessed as diameter of inhibition zone at 50 to 100 ug/ml by disc-diffusion method; details: dose 50-100 µg/ml
Staphylococcus aureus [13] = assay: Antibacterial activity against Staphylococcus aureus
Bacillus subtilis = assay: Antibacterial activity against Bacillus subtilis assessed as reduction in bacterial growth
Escherichia coli [14] = assay: Antibacterial activity against Escherichia coli assessed as reduction in bacterial growth
Aspergillus niger [15] = assay: Antifungal activity against Aspergillus niger assessed as fungal growth inhibition
Staphylococcus aureus [16] = assay: Antibacterial activity against Staphylococcus aureus ATCC 29213 assessed as reduction in bacterial growth by micro-broth dilution method
Candida albicans [17] = assay: Antifungal activity against Candida albicans NCIM 2087 assessed as fungal growth inhibition
Pseudomonas aeruginosa = assay: Antibacterial activity against Pseudomonas aeruginosa MCCB 0035 assessed as reduction in bacterial growth by micro-broth dilution method
Aspergillus fumigatus = assay: […] activity against Aspergillus fumigatus NCIM 2081 assessed as reduction in […] by micro-broth dilution method
Escherichia coli [18] = assay: Antibacterial activity against Escherichia coli ATCC 8739 assessed as reduction in bacterial growth by micro-broth dilution method
Aspergillus niger [19] = assay: […] activity against Aspergillus niger NCIM 2191 assessed as reduction in […] by micro-broth dilution method

SMILES: COc1cc(N2CCC(c3n[nH]c(=S)n3-c3cccc(Cl)c3)CC2)ccc1Cl
MIC (Klebsiella pneumoniae [2]): 4 µg/mL (≈ 9.19 µM)
MIC (Candida albicans [3]): 8 µg/mL (≈ 18.4 µM)
MIC (Escherichia coli [4]): 8 µg/mL (≈ 18.4 µM)
MIC (Staphylococcus aureus [5]): 4 µg/mL (≈ 9.19 µM)
MIC (Rhizopus): 8 µg/mL (≈ 18.4 µM)
MIC (Aspergillus flavus [6]): 4 µg/mL (≈ 9.19 µM)

SMILES: COc1cc(/C=N/n2c(-c3ccc(Cl)cc3)n[nH]c2=S)ccc1O
diameter of the inhibition zone (DIZ) (Staphylococcus aureus [7]): 4 mm
diameter of the inhibition zone (DIZ) (Klebsiella pneumoniae [8]): 4 mm
diameter of the inhibition zone (DIZ) (Escherichia coli [9]): 4 mm
diameter of the inhibition zone (DIZ) (Candida albicans [10]): 4 mm

SMILES: CCOC(=O)C1=C(C)Oc2nc(C)n(Cc3cn(-c4cccc(C(F)(F)F)c4)nn3)c(=O)c2C1c1ccc([N+](=O)[O-])cc1 (stereo unspecified)
diameter of the inhibition zone (DIZ) (Candida albicans [11]): 10.5 mm
diameter of the inhibition zone (DIZ) (Aspergillus flavus [12]): 10.5 mm

SMILES: COc1cc(/C=N/n2c(-c3ccc(Cl)cc3Cl)n[nH]c2=S)ccc1O
diameter of the inhibition zone (DIZ) (Staphylococcus aureus [7]): 3 mm
diameter of the inhibition zone (DIZ) (Klebsiella pneumoniae [8]): 3 mm
diameter of the inhibition zone (DIZ) (Escherichia coli [9]): 3 mm
diameter of the inhibition zone (DIZ) (Candida albicans [10]): 3 mm

SMILES: Sc1nnc(-c2ccc(Cl)cc2)n1/N=C/c1ccco1
diameter of the inhibition zone (DIZ) (Staphylococcus aureus [7]): 4 mm
diameter of the inhibition zone (DIZ) (Klebsiella pneumoniae [8]): 4 mm
diameter of the inhibition zone (DIZ) (Escherichia coli [9]): 4 mm
diameter of the inhibition zone (DIZ) (Candida albicans [10]): 4 mm

SMILES: S=c1[nH]nc(-c2ccc(Cl)cc2Cl)n1/N=C/c1ccco1
diameter of the inhibition zone (DIZ) (Staphylococcus aureus [7]): 3 mm
diameter of the inhibition zone (DIZ) (Klebsiella pneumoniae [8]): 3 mm
diameter of the inhibition zone (DIZ) (Escherichia coli [9]): 3 mm
diameter of the inhibition zone (DIZ) (Candida albicans [10]): 3 mm

SMILES: CC(=O)N1CCN(c2ccc(OCC3COC(Cn4ccnc4)(c4ccc(Cl)cc4Cl)O3)cc2)CC1 (stereo unspecified) [KETOCONAZOLE]
diameter of the inhibition zone (DIZ) (Candida albicans [11]): 14 mm
diameter of the inhibition zone (DIZ) (Aspergillus flavus [12]): 14 mm

SMILES: CC(c1ccc(Br)cc1)n1cc(Cn2cc(/C=C/C(=O)c3ccc(Br)cc3)c3ccccc32)nn1 (stereo unspecified)
MIC (Bacillus subtilis): 10.9 µM (≈ 6.43 µg/mL)
MIC (Escherichia coli [14]): 10.9 µM (≈ 6.43 µg/mL)

SMILES: CCOC(=O)C1=C(C)Oc2nc(C)n(Cc3cn(-c4cccc(F)c4)nn3)c(=O)c2C1c1ccc([N+](=O)[O-])cc1 (stereo unspecified)
diameter of the inhibition zone (DIZ) (Candida albicans [11]): 12 mm
diameter of the inhibition zone (DIZ) (Aspergillus flavus [12]): 12 mm

SMILES: COc1cc(N2CCC(c3n[nH]c(=S)n3-c3cc(Cl)cc(Cl)c3)CC2)ccc1Cl
MIC (Klebsiella pneumoniae [2]): 8 µg/mL (≈ 17 µM)
MIC (Candida albicans [3]): 16 µg/mL (≈ 34.1 µM)
MIC (Escherichia coli [4]): 8 µg/mL (≈ 17 µM)
MIC (Staphylococcus aureus [5]): 16 µg/mL (≈ 34.1 µM)
MIC (Rhizopus): 32 µg/mL (≈ 68.1 µM)
MIC (Aspergillus flavus [6]): 32 µg/mL (≈ 68.1 µM)

Further lines, results first:

MIC (Staphylococcus aureus [1]): 10.1 µg/mL (≈ 27.6 µM)
SMILES: Cc1ccccc1-n1cc(Cn2c3ccccc3c(=O)c3ccccc32)nn1

MIC (Klebsiella pneumoniae [2]): 8 µg/mL (≈ 18.4 µM)
MIC (Candida albicans [3]): 4 µg/mL (≈ 9.19 µM)
MIC (Escherichia coli [4]): 4 µg/mL (≈ 9.19 µM)
MIC (Staphylococcus aureus [5]): 8 µg/mL (≈ 18.4 µM)
MIC (Rhizopus): 8 µg/mL (≈ 18.4 µM)
MIC (Aspergillus flavus [6]): 8 µg/mL (≈ 18.4 µM)
SMILES: COc1cc(N2CCC(c3n[nH]c(=S)n3-c3ccc(Cl)cc3)CC2)ccc1Cl

MIC (Staphylococcus aureus [13]): 27 µM (≈ 12.1 µg/mL)
SMILES: COc1ccc(NC(=O)NCc2cn(CC(=O)Nc3ccc(C(F)(F)F)cc3)nn2)cc1

MIC (Staphylococcus aureus [13]): 13 µM (≈ 5.88 µg/mL)
MIC (Bacillus subtilis): 13 µM (≈ 5.88 µg/mL)
SMILES: Cc1ccc(NC(=O)Cn2cc(COc3ccc(C(=O)/C=C/c4ccccc4)cc3)nn2)cc1

MIC (Staphylococcus aureus [1]): 12.3 µg/mL (≈ 32.4 µM)
SMILES: Cc1ccc2c(c1)c(=O)c1ccccc1n2Cc1cn(-c2ccccc2C)nn1

MIC (Klebsiella pneumoniae [2]): 8 µg/mL (≈ 17.1 µM)
MIC (Candida albicans [3]): 8 µg/mL (≈ 17.1 µM)
MIC (Escherichia coli [4]): 4 µg/mL (≈ 8.53 µM)
MIC (Staphylococcus aureus [5]): 4 µg/mL (≈ 8.53 µM)
MIC (Rhizopus): 8 µg/mL (≈ 17.1 µM)
MIC (Aspergillus flavus [6]): 4 µg/mL (≈ 8.53 µM)
SMILES: COc1cc(N2CCC(c3n[nH]c(=S)n3-c3cccc(C(F)(F)F)c3)CC2)ccc1Cl

MIC (Aspergillus niger [15]): 12 µM (≈ 5.8 µg/mL)
MIC (Escherichia coli [14]): 12 µM (≈ 5.8 µg/mL)
SMILES: O=C(Cn1cc(COc2ccc(C(=O)/C=C/c3ccccc3)cc2)nn1)Nc1ccc([N+](=O)[O-])cc1

MIC (Staphylococcus aureus [16]): 1 µg/mL (≈ 1.89 µM)
MIC (Candida albicans [17]): 2 µg/mL (≈ 3.78 µM)
MIC (Pseudomonas aeruginosa): 4 µg/mL (≈ 7.57 µM)
MIC (Aspergillus fumigatus): 32 µg/mL (≈ 60.6 µM)
MIC (Escherichia coli [18]): 2 µg/mL (≈ 3.78 µM)
MIC (Aspergillus niger [19]): 4 µg/mL (≈ 7.57 µM)
SMILES: O=c1cc(-c2ccccc2)c2cc(Br)ccc2n1Cc1nnc2n1N=C(c1ccccc1)CS2
